Test results from ChEMBL document CHEMBL4251684, “Trichodermides A-E: New Peptaibols Isolated from the Australian Termite Nest-Derived Fungus Trichoderma virens CMB-TN16” (J Nat Prod, 2018).
Activity calls are given as the source filed them. The rule behind the calls is not given here.

Tests used:
[1] = tested on: Pichia kudriavzevii; experiment: Antimicrobial activity against Candida krusei ATCC 6258 after 24 hrs by spectrophotometric method; type: functional, organism-based
[2] = tested on: NCI-H460; experiment: Cytotoxicity against human NCI-H460 cells assessed as inhibition of cell growth after 48 hrs by MTT assay; type: cell-based; details: NCI-H460, 48 h
[3] = tested on: SW-620; experiment: Cytotoxicity against human SW620 cells assessed as inhibition of cell growth after 48 hrs by MTT assay; type: cell-based; details: SW-620, 48 h
[4] = tested on: Candida parapsilosis; experiment: Antimicrobial activity against Candida parapsilosis ATCC 22019 after 24 hrs by spectrophotometric method; type: functional, organism-based
[5] = tested on: Candida albicans; experiment: Antimicrobial activity against Candida albicans ATCC 10231 after 24 hrs by spectrophotometric method; type: functional, organism-based
[6] = tested on: Escherichia coli; experiment: Antimicrobial activity against Escherichia coli ATCC 11775 after 24 hrs by spectrophotometric method; type: functional, organism-based; details: DSM 30083 = JCM 1649 = ATCC 11775
[7] = tested on: Staphylococcus aureus; experiment: Antimicrobial activity against Staphylococcus aureus ATCC 25923 after 24 hrs by spectrophotometric method; type: functional, organism-based
[8] = tested on: Bacillus subtilis; experiment: Antimicrobial activity against Bacillus subtilis ATCC 6051 after 24 hrs by spectrophotometric method; type: functional, organism-based
[9] = tested on: Pseudomonas aeruginosa; experiment: Antimicrobial activity against Pseudomonas aeruginosa ATCC 10145 after 24 hrs by spectrophotometric method; type: functional, organism-based

Row | SMILES | Activity [1] | IC50 [2] | IC50 [3] | Activity [4] | Activity [5] | Activity [6] | Activity [7] | Activity [8] | Activity [9]
1 | CC[C@@H](C)[C@H](NC(=O)[C@H](CCC(N)=O)NC(=O)[C@@](C)(CC)NC(C)=O)C(=O)N[C@H](C(=O)NC(C)(C)C(=O)N1CCC[C@H]1C(=O)N[C@H](C(=O)N[C@@H](CC(C)C)C(=O)NC(C)(C)C(=O)N1CCC[C@H]1C(=O)N[C@H](CO)CC(C)C)[C@@H](C)CC)C(C)C | inactive | 10.9 µM | 12.8 µM | inactive | inactive | inactive | inactive | inactive | inactive
2 | CC[C@@H](C)[C@H](NC(=O)[C@H](CCC(N)=O)NC(=O)[C@@](C)(CC)NC(C)=O)C(=O)N[C@H](C(=O)NC(C)(C)C(=O)N1CCC[C@H]1C(=O)N[C@H](C(=O)N[C@@H](CC(C)C)C(=O)NC(C)(C)C(=O)N1CCC[C@H]1C(=O)N[C@H](CO)C(C)C)[C@@H](C)CC)C(C)C | inactive | 19.3 µM | 18.9 µM | inactive | inactive | inactive | inactive | inactive | inactive
3 | CC[C@@H](C)[C@H](NC(=O)[C@H](CCC(N)=O)NC(=O)C(C)(C)NC(C)=O)C(=O)N[C@H](C(=O)NC(C)(C)C(=O)N1CCC[C@H]1C(=O)N[C@H](C(=O)N[C@@H](CC(C)C)C(=O)NC(C)(C)C(=O)N1CCC[C@H]1C(=O)N[C@H](CO)CC(C)C)[C@@H](C)CC)C(C)C | inactive | > 30 µM | > 30 µM | inactive | inactive | inactive | inactive | inactive | inactive
4 | CC[C@H](C)[C@H](NC(=O)[C@@H]1CCCN1C(=O)C(C)(C)NC(=O)[C@@H](NC(=O)[C@@H](NC(=O)[C@H](CCC(N)=O)NC(=O)[C@@](C)(CC)NC(C)=O)C(C)C)C(C)C)C(=O)N[C@@H](CC(C)C)C(=O)NC(C)(C)C(=O)N1CCC[C@H]1C(=O)N[C@H](CO)C(C)C | inactive | > 30 µM | 27.5 µM | inactive | inactive | inactive | inactive | inactive | inactive
5 | CC[C@@H](C)[C@H](NC(=O)[C@H](CCC(N)=O)NC(=O)C(C)(C)NC(C)=O)C(=O)N[C@H](C(=O)NC(C)(C)C(=O)N1CCC[C@H]1C(=O)N[C@H](C(=O)N[C@@H](CC(C)C)C(=O)NC(C)(C)C(=O)N1CCC[C@H]1C(=O)N[C@H](CO)C(C)C)[C@@H](C)CC)C(C)C | inactive | > 30 µM | > 30 µM | inactive | inactive | inactive | inactive | inactive | inactive
